Experimental data as given in publication PMC8284453 (Antimicrobial Agents and Chemotherapy, 2021).
Values after ≈ are worked out from the molar mass of the structure shown. Where two headings read alike, the source gives them in different places.

Experiments:
[1] = test system: strains of Enterobacterales expressing serine β-lactamases; experiment: organism not typed; format: cell-based
[2] = test system: strains utilized in time-kill studies; experiment: MIC summary across strains utilized in time-kill studies; format: cell-based, E. coli, E. cloacae, K. pneumoniae; settings: across all four strains
E. coli 1480076 = experiment: Impact of pH and human urine on MIC; format: cell-based
Experimental: (§1) Studies were conducted by IHMA, Schaumberg, IL. […] MICs were determined by broth […] methodology ([30], [31]). […] Antibacterial panels containing 100 μl of antibacterial solution were inoculated with the adjusted inocula using 95-prong inoculator sets. Test panels were read visually after incubation following CLSI guidelines for each organism. MIC values corresponded to the first well with no visible growth.

E. coli ATCC 25922 = experiment: Impact of pH and human urine on MIC; format: cell-based; settings: Escherichia coli, ATCC25922, read-out: Median or modal MIC
Experimental: as §1

K. pneumoniae 1266420 = experiment: Impact of pH and human urine on MIC; format: cell-based; settings: Klebsiella pneumoniae
Experimental: as §1

K. pneumoniae 1434760 = experiment: Impact of pH and human urine on MIC; format: cell-based
Experimental: as §1

[3] = test system: K. pneumoniae ATCC 700603; experiment: Impact of pH and human urine on MIC; format: cell-based; settings: Klebsiella pneumoniae, ATCC700603, read-out: Median or modal MIC
Experimental: as §1

[4] = test system: K. pneumoniae ATCC BAA-1705; experiment: Impact of pH and human urine on MIC; format: cell-based; settings: Klebsiella pneumoniae, ATCCBAA1705, read-out: Median or modal MIC
Experimental: as §1

[5] = test system: K. pneumoniae UNT-023 expressing KPC, TEM-1, and SHV-11; experiment: microbe, parasite or virus in culture; format: cell-based; settings: Klebsiella pneumoniae
[6] = test system: K. pneumoniae UNT-023 expressing KPC, TEM-1, and SHV-11; experiment: animal or person; format: in vivo; settings: Klebsiella pneumoniae, in Mus musculus, 1 h
[7] = test system: E. coli NCTC 13353 expressing CTX-M-15; settings: approved QC range; ref CLSI AST Subcommittee, February 2021; cited from earlier work
[8] = test system: K. pneumoniae ATCC BAA-1705 expressing KPC-2, SHV, and TEM; settings: approved QC range; ref CLSI AST Subcommittee, February 2021; cited from earlier work
[9] = test system: K. pneumoniae ATCC BAA-2814 expressing KPC-3, SHV-11, and TEM; settings: approved QC range; ref CLSI AST Subcommittee, February 2021; cited from earlier work
[10] = test system: 1,066 clinical urinary tract infection isolates resistant to both amoxicillin-clavulanic acid and levofloxacin; settings: VNRX-5236 fixed at 4 μg/ml in the combination; cited from earlier work
[11] = in vivo, cited from earlier work
[12] = cited from earlier work

Nc1nc(/C(=C/CC(=O)O)C(=O)N[C@@H]2C(=O)N3C(C(=O)O)=CCS[C@H]23)cs1 [CTB, ceftibuten]
MIC50 [1]: 0.12 µg/mL (≈ 0.292 µM)
MIC90 [1]: 1 µg/mL (≈ 2.44 µM)
MIC range [2]: 16 to 128 µg/mL
MIC (E. coli 1480076; Escherichia coli, 1480076, read-out: Median or modal MIC): 128 µg/mL (≈ 312 µM)
MIC (E. coli 1480076; Escherichia coli, 1480076, Human urine, pH 6, read-out: Median or modal MIC): 32 µg/mL (≈ 78 µM)
MIC (E. coli 1480076; Escherichia coli, 1480076, Human urine, pH 7.2, read-out: Median or modal MIC): 32 µg/mL (≈ 78 µM)
MIC (E. coli ATCC 25922; Human urine, pH 6): 0.25 µg/mL (≈ 0.609 µM)
MIC (E. coli ATCC 25922; Human urine, pH 7.2): 0.12 µg/mL (≈ 0.292 µM)
MIC (E. coli ATCC 25922; MHII broth): 0.25 µg/mL (≈ 0.609 µM)
MIC (K. pneumoniae 1266420; Human urine, pH 6, read-out: Median or modal MIC): 64 µg/mL (≈ 156 µM)
MIC (K. pneumoniae 1266420; Human urine, pH 7.2, read-out: Median or modal MIC): 16 µg/mL (≈ 39 µM)
MIC (K. pneumoniae 1266420; MHII broth, read-out: Median or modal MIC): 32 µg/mL (≈ 78 µM)
MIC (K. pneumoniae 1434760; Klebsiella pneumoniae, 1434760, pH 6, read-out: Median or modal MIC): > 128 µg/mL
MIC (K. pneumoniae 1434760; Klebsiella pneumoniae, 1434760, pH 7.2, read-out: Median or modal MIC): 128 µg/mL (≈ 312 µM)
MIC (K. pneumoniae 1434760; Klebsiella pneumoniae, 1434760, read-out: Median or modal MIC): > 128 µg/mL
MIC ([3]; Human urine, pH 6): 1 µg/mL (≈ 2.44 µM)
MIC ([3]; Human urine, pH 7.2): 0.5 µg/mL (≈ 1.22 µM)
MIC ([3]; MHII broth): 0.5 µg/mL (≈ 1.22 µM)
MIC ([4]; Human urine, pH 6): 2 µg/mL (≈ 4.87 µM)
MIC ([4]; Human urine, pH 7.2): 2 µg/mL (≈ 4.87 µM)
MIC ([4]; MHII broth): 8 µg/mL (≈ 19.5 µM)
MIC [5]: 64 µg/mL (≈ 156 µM)
ED50 [6]: > 128 mg/kg
QC range (MIC) [7]: 16 to 64 µg/mL
QC range (MIC) [8]: 4 to 32 µg/mL
QC range (MIC) [9]: 8 to 32 µg/mL
MIC90 [10]: > 32 µg/mL
oral bioavailability ([11]; po): ~65%
plasma half-life [11]: ~2.4 h
renal excretion [11]: ~56%
human plasma protein binding [12]: ~60%
